Test results taken from EP0172919A1, “CEPHALOSPORIN DERIVATIVES, PROCESS FOR THEIR PREPARATION, AND THEIR PHARMACEUTICAL USE” (TEIJIN LIMITED, priority 1984, dated 1985).
≈ marks a conversion by molar mass, not a printed value. Where two headings read alike, the source gives them in different places.

How the values were obtained:
Enterobacter cloacae 963 = experiment: In vitro antibacterial activity, two-fold agar-plate dilution method (MIC); assay type: cell-based
Protocol: (§1) In vitro antibacterial activity was determined by the two-fold agar-plate dillution method.
(§2) One loopful of an overnight culture of each test starin in Trypticase-soy broth (10^6 viable cells per mt) was streaked on heart infusion agar (Muller-Hinton Agar) containing graded concentrations of representative test compound, and the minimal inhibitory concentration (MIC) was expressed in terms of µg/ml after incubation at 37°C for 16 hours.
(§3) In vitro antibacterial activities of other compounds of the present invention were determined in the same way as in Example 26.

[1] = system: Pseudomonas aeruginosa IFO3445; experiment: as above; assay type: cell-based
Protocol: as §1, §2, §3

Staphyrococcus Terajima = experiment: as above; assay type: cell-based
Protocol: as §1, §2, §3

[2] = system: Butilus subtilis ATCC6633; experiment: as above; assay type: cell-based; conditions: 37°C for 16 hours
Protocol: as §1, §2

[3] = system: Escherichia coli K-12C-600; experiment: as above; assay type: cell-based; conditions: K12C600, 37°C for 16 hours
Protocol: as §1, §2

[4] = system: Micrococcus luteus ATCC9341; experiment: as above; assay type: cell-based
Protocol: as §1, §2

[5] = system: Pseudomonas aeruginosa NCTC10490; experiment: as above; assay type: cell-based
Protocol: as §1, §2

[6] = system: Pseudomonas aeruginosa PAO1; experiment: as above; assay type: cell-based
Protocol: as §1, §2

[7] = system: Salmonera schottmuelleri 8001; experiment: as above; assay type: cell-based; conditions: 37°C for 16 hours
Protocol: as §1, §2

[8] = system: Salmonera typhimurium IID 971; experiment: as above; assay type: cell-based; conditions: 37°C for 16 hours
Protocol: as §1, §2

[9] = system: Staphyrococcus aureus FDA209JC-1; experiment: as above; assay type: cell-based
Protocol: as §1, §2

[10] = system: Staphyrococcus aureus MS 353; experiment: as above; assay type: cell-based
Protocol: as §1, §2

[11] = system: Staphyrococcus pyogenes COOK; experiment: as above; assay type: cell-based
Protocol: as §1, §2

E.coli 81 [12] = experiment: In vivo antibacterial activity: survival of mice infected with E.coli 81; design: species or system ICR strain male mice
Protocol: Experiment was performed in ICR strain male mice (5W) weighing 22 to 25 g. The animals were used in a group of 10 per regimen. Test organism, E.coli 81, was cultured on Mueller-Hinton agar over night at 37°C and suspended in saline to be one minimal lethal dose (5 x 10^5 cells/head). One mililitre of the bacterial suspension was injected intrapenetoreally and, after 15 minutes, mice were treated subcutaneously with various doses of compound (100) and comparative compound B. Survival mice were counted for 4 days and final observation was carried out on day 4.

E.coli 81 [13] = experiment: MIC in E.coli 81 (Table IV); assay type: cell-based; conditions: Escherichia coli, 81, 16 h, read-out: MIC (μg/mℓ) in E.coli 81
Protocol: as §1, §2

E.coli 81 [14] = experiment: Duration of antibiotic activity: survival of mice dosed before E.coli 81 infection; assay type: in vivo, ICR strain male mice
Protocol: The duration of antibiotic activity of compound (100) was determined.
Experiment was performed in ICR strain male mice (5W). The animals were used in a group of 10 per regimen. A solution of E.coli 81 was injected intrapenetreally at a dose of 5 x 10^5 cell/head. Before one or three hours, the compound (100) was injected subcutaneously at a dose of 0.5 mg/head. Survival mice were counted on day 4 after injection.

Proleus morgani IFO3848 = experiment: In vitro antibacterial activity, two-fold agar-plate dilution method (MIC); assay type: cell-based; conditions: 37°C for 16 hours, read-out: MIC
Protocol: as §1, §2, §3

Proleus vulgaria OX-19 = experiment: as above; assay type: cell-based; conditions: 37°C for 16 hours, read-out: MIC
Protocol: as §1, §2, §3

[15] = system: Proleus vulgaris IFO 3850; experiment: as above; assay type: cell-based; conditions: Proleus vulgaris IFO 3850; agar dilution, 37°C for 16 hours; read-out: MIC
Protocol: as §1, §2, §3

Salmonera paratyphi 1015 = experiment: as above; assay type: cell-based; conditions: 16 h
Protocol: as §1, §2, §3

[16] = system: Serratia marcescens IAM1184; experiment: as above; assay type: cell-based; conditions: Serratia marcescens IAM1184; agar dilution, 37°C for 16 hours; read-out: MIC
Protocol: as §1, §2, §3

[17] = Enterobacter cloacae 963, agar dilution, 37°C for 16 hours, read-out: MIC
[18] = Pseudomonas aeruginosa IFO3445, agar dilution, 37°C for 16 hours, read-out: MIC
[19] = Staphyrococcus Terajima, agar dilution, 37°C for 16 hours, read-out: MIC
[20] = Micrococcus luteus ATCC9341, agar dilution, 37°C for 16 hours, read-out: MIC
[21] = Pseudomonas aeruginosa NCTC10490, agar dilution, 37°C for 16 hours, read-out: MIC
[22] = Pseudomonas aeruginosa PAO1, agar dilution, 37°C for 16 hours, read-out: MIC
[23] = Staphyrococcus aureus FDA209JC-1, agar dilution, 37°C for 16 hours, read-out: MIC
[24] = Staphyrococcus aureus MS 353, agar dilution, 37°C for 16 hours, read-out: MIC
[25] = Staphyrococcus pyogenes COOK, agar dilution, 37°C for 16 hours, read-out: MIC
[26] = Dose 0.016 mg/head subcutaneously 15 minutes after intraperitoneal E.coli 81 (5 x 10^5 cells/head)
[27] = Dose 0.032 mg/head subcutaneously 15 minutes after intraperitoneal E.coli 81 (5 x 10^5 cells/head)
[28] = Dose 0.063 mg/head subcutaneously 15 minutes after intraperitoneal E.coli 81 (5 x 10^5 cells/head)
[29] = Dose 0.125 mg/head subcutaneously 15 minutes after intraperitoneal E.coli 81 (5 x 10^5 cells/head)
[30] = Dose 0.25 mg/head subcutaneously 15 minutes after intraperitoneal E.coli 81 (5 x 10^5 cells/head)
[31] = Dose 0.5 mg/head subcutaneously 15 minutes after intraperitoneal E.coli 81 (5 x 10^5 cells/head)

| Compound | MIC [2] [µg/mL] | MIC [3] [µg/mL] | MIC [7] [µg/mL] | MIC [8] [µg/mL] | MIC (Enterobacter cloacae 963; [17]) [µg/mL] | MIC [1, 18] [µg/mL] | MIC (Staphyrococcus Terajima; [19]) [µg/mL] | MIC [4, 20] [µg/mL] | MIC [5, 21] [µg/mL] | MIC [6, 22] [µg/mL] | MIC [9, 23] [µg/mL] | MIC [10, 24] [µg/mL] | MIC [11, 25] [µg/mL] | Survivals percent (%) on day 4 (E.coli 81 [12]; [26]) [%] | Survivals percent (%) on day 4 (E.coli 81 [12]; [27]) [%] | Survivals percent (%) on day 4 (E.coli 81 [12]; [28]) [%] | Survivals percent (%) on day 4 (E.coli 81 [12]; [29]) [%] | Survivals percent (%) on day 4 (E.coli 81 [12]; [30]) [%] | Survivals percent (%) on day 4 (E.coli 81 [12]; [31]) [%] | other results |
| --- | --- | --- | --- | --- | --- | --- | --- | --- | --- | --- | --- | --- | --- | --- | --- | --- | --- | --- | --- | --- |
| CC(C)(ON=C(C(=O)NC1C(=O)N2C(C(=O)[O-])=C(C[n+]3ccccc3)CSC12)c1csc(N)n1)C(=O)O (stereo not drawn) [Comparative compound A] | 0.78 (≈ 1.43 µM) | 0.2 (≈ 0.366 µM) | 0.025 (≈ 0.0457 µM) | 0.39 (≈ 0.714 µM) | – | – | – | – | – | – | – | – | – | – | – | – | – | – | – | MIC (Enterobacter cloacae 963; Enterobacter cloacae, 963, 16 h): 0.2 µg/mL (≈ 0.366 µM); MIC ([1]; Pseudomonas aeruginosa, IFO3445, 16 h): 1.56 µg/mL (≈ 2.85 µM); MIC (Staphyrococcus Terajima; 16 h): 1.56 µg/mL (≈ 2.85 µM); MIC ([4]; Micrococcus luteus, ATCC9341, 16 h): 0.0063 µg/mL (≈ 0.0115 µM); MIC ([5]; Pseudomonas aeruginosa, NCTC10490, 16 h): 0.39 µg/mL (≈ 0.714 µM); MIC ([6]; Pseudomonas aeruginosa, PAO1, 16 h): 0.1 µg/mL (≈ 0.183 µM); MIC ([9]; 16 h): 1.56 µg/mL (≈ 2.85 µM); MIC ([10]; 16 h): 1.56 µg/mL (≈ 2.85 µM); MIC ([11]; 16 h): 0.0063 µg/mL (≈ 0.0115 µM) |
| CON=C(C(=O)NC1C(=O)N2C(C(=O)O)=C(CSc3nnnn3C)CSC12)c1csc(N)n1 (stereo not drawn) [Comparative compound B] | 0.78 (≈ 1.52 µM) | 0.05 (≈ 0.0977 µM) | 0.0063 (≈ 0.0123 µM) | 0.39 (≈ 0.762 µM) | 0.2 (≈ 0.391 µM) | 12.5 (≈ 24.4 µM) | 0.78 (≈ 1.52 µM) | 0.39 (≈ 0.762 µM) | 0.39 (≈ 0.762 µM) | 12.5 (≈ 24.4 µM) | 3.12 (≈ 6.1 µM) | 0.2 (≈ 0.391 µM) | 0.025 (≈ 0.0489 µM) | 0 | 20 | 30 | 40 | 40 | 40 | – |
| CO/N=C(\C(=O)N[C@@H]1C(=O)N2C(C(=O)[O-])=C(C[N+]34CCCC3CCC4)CS[C@H]12)c1csc(N)n1 (stereo partly drawn) [Compound (100), (6R,7R)-7-[(Z)-2-(2-aminothiazol-4-yl)-2-meth-oxyiminoacetoamido]-3-(1-azabicyclo[3,3,0]octane-l-io)methyl-3-cephem-4-carboxylate] | 0.39 (≈ 0.77 µM) | 0.05 (≈ 0.0987 µM) | < 0.0063 | 0.05 (≈ 0.0987 µM) | 0.05 (≈ 0.0987 µM) | 1.56 (≈ 3.08 µM) | 0.39 (≈ 0.77 µM) | < 0.0063 | 0.025 (≈ 0.0493 µM) | 0.1 (≈ 0.197 µM) | 0.39 (≈ 0.77 µM) | 0.2 (≈ 0.395 µM) | < 0.0063 | 40 | 40 | 50 | 100 | 100 | 100 | MIC (E.coli 81 [13]): 0.025 µg/mL (≈ 0.0493 µM); Survival percent (%) Injection before one hour (E.coli 81 [14]; 0.5 mg/head subcutaneously one hour before intraperitoneal E.coli 81 (5 x 10^5 cell/head), survival on day 4, mice): 100%; Survival percent (%) Injection before three hours (E.coli 81 [14]; 0.5 mg/head subcutaneously three hours before intraperitoneal E.coli 81 (5 x 10^5 cell/head), survival on day 4, mice): 100%; duration of antibiotic activity (E.coli 81 [14]; conclusion in words drawn from Table IV): excellent in duration of antibabiotic activity |
| CO/N=C(\C(=O)N[C@@H]1C(=O)N2C(C(=O)[O-])=C(C[N+]34CCCCC3CCCC4)CS[C@H]12)c1csc(N)n1 (stereo partly drawn) [Compound (104), (6R,7R)-[(Z)-2-(2-aminothiazol-4-yl)-2-methoxyiminoacetoamido]-3-(1-azabicyclo [4,4,0]decane-1-io) methyl-3-cephem-4-carboxylate] | – | – | – | – | 0.1 (≈ 0.187 µM) | 1.56 (≈ 2.92 µM) | 0.39 (≈ 0.729 µM) | – | – | – | – | – | – | – | – | – | – | – | – | MIC (Proleus morgani IFO3848): 0.0125 µg/mL (≈ 0.0234 µM); MIC (Proleus vulgaria OX-19): 0.025 µg/mL (≈ 0.0468 µM); MIC [15]: 0.0125 µg/mL (≈ 0.0234 µM); MIC (Salmonera paratyphi 1015): 0.025 µg/mL (≈ 0.0468 µM); MIC [16]: 0.025 µg/mL (≈ 0.0468 µM) |
